Experimental data from US10221426B2, “Constitutively active PYR/PYL receptor proteins for improving plant stress tolerance” (The Regents of the University of California, priority 2009, dated 2019).

Assays:
[1] = molecular target: T1, PYR1-HAB1 (Arabidopsis thaliana, UniProt O49686); experiment: Yeast two-hybrid BD-PYR1 / AD-HAB1 interaction, X-gal stain; format: cell-based; settings: 10 μM, except epi-brassinolide (50 nM)
T1 construct: the Pyr1 open reading frame was PCR amplified from genomic DNA; expressed in transfected cells; host or cells: yeast strain Y190
T1 sequence (O49686 1-191): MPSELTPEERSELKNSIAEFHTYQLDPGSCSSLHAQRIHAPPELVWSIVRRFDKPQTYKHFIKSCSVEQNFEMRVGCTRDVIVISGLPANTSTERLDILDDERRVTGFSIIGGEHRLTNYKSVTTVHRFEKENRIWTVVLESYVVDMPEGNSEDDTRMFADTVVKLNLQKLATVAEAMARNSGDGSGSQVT
T1 sequence (Q9CAJ0 23-511 partner): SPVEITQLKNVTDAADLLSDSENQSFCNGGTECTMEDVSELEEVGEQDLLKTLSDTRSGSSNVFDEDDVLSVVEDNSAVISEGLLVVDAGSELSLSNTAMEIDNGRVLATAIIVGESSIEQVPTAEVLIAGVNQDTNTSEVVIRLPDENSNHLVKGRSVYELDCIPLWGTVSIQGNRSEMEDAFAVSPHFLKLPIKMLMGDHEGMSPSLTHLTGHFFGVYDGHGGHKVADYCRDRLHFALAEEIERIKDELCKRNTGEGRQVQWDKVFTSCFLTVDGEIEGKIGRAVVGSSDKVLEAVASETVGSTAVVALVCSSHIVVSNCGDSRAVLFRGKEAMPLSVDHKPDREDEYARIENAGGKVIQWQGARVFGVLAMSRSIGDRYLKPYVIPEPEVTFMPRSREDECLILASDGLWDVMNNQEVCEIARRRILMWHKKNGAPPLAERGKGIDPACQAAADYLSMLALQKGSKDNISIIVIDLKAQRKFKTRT
Procedure: (§1) Given that PYR1 is necessary for pyrabactin action and is a predicted ligand-binding protein, we hypothesized that pyrabactin agonizes ABA signaling by inducing a protein-protein interaction between PYR1 and a downstream effector. To test this, ˜2 million prey cDNA clones were screened against a PYR1 Y2H bait construct on media containing 10 μM pyrabactin. To create the PYR1 Y2H bait construct, the Pyr1 open reading frame was PCR amplified from genomic DNA and cloned to pGem-T easy vector (Promega). After sequence confirmation, the Pyr1 ORF was then cloned in-frame between EcoRI and SalI sites of the pBD-GAL4 Cam vector (Stratagene) and transformed into yeast strain Y190. For the screen, an etiolated seedling cDNA library (J. Kim, K., Harter, A., Theologis, Proc Natl Acad Sci USA 94, 11786 (Oct. 28, 1997)) (ABRC stock CD4-22) was used. The cDNA library was first converted from phage to plasmid DNA, yielding 7.6×10^7 transformants. Plasmid DNA prepared from library was then used to transform Y190 as described in the GAL4 Two-Hybrid system manual (Stratagene). For each screen, 40 μg of prey plasmid was transformed into 1 ml of competent Y190 cell harboring bait construct and then grown on SD agar plates lacking His, Leu, and Trp, but containing 15 mM 3-AT and 10 μM pyrabactin. After 4 days incubation at 30° C., well-grown colonies were rescued and interactions validated using filter lift assay or chloroform-agarose overlay method and X-Gal staining. This identified two pyrabactin-dependent hits which sequencing determined encoded cDNAs for the PP2C HAB1, a close relative of the well-characterized ABA response factor ABI1 (A. Saez et al., The Plant Journal 37, 354 (2004); N. Leonhardt et al., THE PLANT CELL 16, 596 (2004)). Next, Y2H strains expressing an AD-HAB1 fusion protein and a BD-PYR1 fusion protein were grown on plates and tested for interactions in response to various compounds, all at 10 μM except for epi-brassinolide (50 nM) and dimethyl sulfoxide (DMSO) (carrier solvent, 1%). […] Thus, PYR1 interacts with HAB1 in a (+)-ABA dependent fashion.

[2] = system: Arabidopsis seeds; experiment: Seed germination inhibition; format: in vivo; settings: in vivo
Procedure: FIG. 1. Pyrabactin is a seed selective ABA agonist. (A) Structures of molecules described in this study. (B) Pyrabactin activity is suppressed by abi1-1. Seeds of the genotype shown at top were imbibed on media containing 25 μM pyrabactin and scored for germination 4 days after stratification. Shown at bottom are IC50 values for pyrabactin's germination effect on the genotypes characterized. (C) Microarray comparison of pyrabactin and ABA treatments in seeds. The Y-axis plots the log2 transformed value for a probe's response to 25 μM pyrabactin (relative to untreated control) and the X-axis a probe's response to 1 μM ABA. […] (D) Microarray comparison of cycloheximide and ABA responses in seeds. […] (E) Microarray comparison of pyrabactin and ABA responses in seedlings. Seven-day old seedlings were transferred to 10 μM ABA or 50 μM pyrabactin containing plates for 24 hours and then mRNA samples profiled. Inset in each scatter plot is the Pearson correlation coefficient for each comparison. Detailed microarray methods are described in the Examples section.
FIG. 2. PYR1 encodes an ABA responsive START-domain protein. (A) Pyr1 alleles. Shown are the allele names, strain names (in parentheses) and amino acid changes caused by the Pyr1 mutant alleles identified by screening for pyrabactin resistant mutations. (B) Pictographic representation of Pyr1 and Pyl1-Pyl4 expression values housed in public microarray databases. The heatmap shown at top right is for the first upper three panels and the bottom heatmap for the guard cell data. Plots were made using the eFP browser (D. Winter et al., PLoS ONE 2, e718 (2007)). (C) 35S::GFP-PYR1 complements pyr1-1. Seeds of the genotypes shown were stratified 4 days on 25 μM pyrabactin and then germinated at RT, 90% RH for 3 days in darkness. […] (D) Pyr/Pyls are required for normal ABA-induced gene expression in seedlings. Shown are qRT-PCR results for the ABA-responsive gene RD29. L, Ler; C, Col; and Q, quadruple mutant. (E) Pyr/Pyl genes are required for normal ABA-induced stress-induced gene expression in seedlings. Shown are qRT-PCR results for two ABA-responsive taqman probes, as described in the Examples section. L=Ler, C=Col, Q=quadruple mutant.
As part of an earlier effort, we identified a germination inhibitor named pyrabactin (Y. Zhao et al., Nat Chem Biol 3, 716 (2007)). […] To test this hypothesis, we examined the pyrabactin sensitivity of mutant lines with altered ABA signaling, biosynthesis or gibberellic acid (GA) perception.
We next performed microarray experiments to evaluate the similarity of the transcriptional responses induced by ABA and pyrabactin treatments. For microarray, tissue was prepared and RNA extracted from Columbia wild type seeds sown on 0.5×MS media (˜2500 seeds per 150 mm plate) containing either 1 μM ABA, 25 μM pyrabactin, 25 μM 2,4-Dinitrophenol (DNP), 1 μM cycloheximide, 2 μM methotrexate or 1% DMSO control plates (all chemicals are dissolved in DMSO). The concentrations utilized for these experiments were normalized for germination inhibition activity by dose curve analyses, i.e. the amount of both compounds required to ensure 100% inhibition of germination when scored 3 days post-imbibition. ABA (±stereoisomers), DNP, cycloheximide and methotrexate were purchased from Sigma Aldrich. Seeds were stratified for 4 days and then incubated in the dark at room temperature for 24 hours. […]

[3] = molecular target: T2, PYL4-HAB1 (Arabidopsis thaliana, UniProt O80920); experiment: Yeast two-hybrid BD-PYL4 / AD-HAB1 interaction; format: cell-based
T2 construct: BD-PYR/PYL fusion proteins were constructed in the same manner as for BD-PYR1 above; expressed in transfected cells; host or cells: yeast (Y190, as for BD-PYR1)
T2 sequence (O80920 1-207): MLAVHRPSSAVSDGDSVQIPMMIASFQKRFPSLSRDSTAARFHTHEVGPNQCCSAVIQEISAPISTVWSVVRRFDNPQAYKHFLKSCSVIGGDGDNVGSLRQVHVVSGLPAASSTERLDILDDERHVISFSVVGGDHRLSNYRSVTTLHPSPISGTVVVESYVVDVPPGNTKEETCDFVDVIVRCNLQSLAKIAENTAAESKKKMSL
T2 sequence (Q9CAJ0 23-511 partner): T1 sequence (Q9CAJ0 23-511 partner)
Procedure: as §1
To see if ABA and pyrabactin responsiveness is unique to PYR1, we tested 11 of the 13 PYL proteins as described above, using Y2H strains expressing an AD-HAB1 fusion protein and a BD-PYR/PYL fusion protein (listed at the left of FIG. 3A). BD-PYR/PYL fusion proteins were constructed in the same manner as for BD-PYR1 above. […] Of these, only Pyr1 is highly transcribed in seeds, which likely explains why mutations in Pyr1 cause the seeds to be insensitive to pyrabactin. […] However the interactions of PYLs 5-12 with the PP2Cs are indicative that the entire protein family is likely to share a similar mechanism of action involving PP2C modulation, as we describe below. […]

[4] = molecular target: T3, PYL3-HAB1 (Arabidopsis thaliana, UniProt Q9SSM7); experiment: Yeast two-hybrid BD-PYL3 / AD-HAB1 interaction; format: cell-based
T3 construct: BD-PYR/PYL fusion proteins were constructed in the same manner as for BD-PYR1 above; expressed in transfected cells; host or cells: yeast (Y190, as for BD-PYR1)
T3 sequence (Q9SSM7 1-209): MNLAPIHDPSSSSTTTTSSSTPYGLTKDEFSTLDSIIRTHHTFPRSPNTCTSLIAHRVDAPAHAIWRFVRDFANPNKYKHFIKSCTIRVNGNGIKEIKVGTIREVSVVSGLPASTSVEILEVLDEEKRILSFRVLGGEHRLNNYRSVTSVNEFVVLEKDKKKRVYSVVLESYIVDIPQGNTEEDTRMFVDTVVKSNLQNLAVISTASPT
T3 sequence (Q9CAJ0 23-511 partner): T1 sequence (Q9CAJ0 23-511 partner)
Procedure: as §1
To see if ABA and pyrabactin responsiveness is unique to PYR1, we tested 11 of the 13 PYL proteins as described above, using Y2H strains expressing an AD-HAB1 fusion protein and a BD-PYR/PYL fusion protein (listed at the left of FIG. 3A). BD-PYR/PYL fusion proteins were constructed in the same manner as for BD-PYR1 above. […] Of these, only Pyr1 is highly transcribed in seeds, which likely explains why mutations in Pyr1 cause the seeds to be insensitive to pyrabactin. […] However the interactions of PYLs 5-12 with the PP2Cs are indicative that the entire protein family is likely to share a similar mechanism of action involving PP2C modulation, as we describe below. Thus, we conclude that entire family modulates ABA responses via PP2C interactions.
The yeast strains expressing PYR/PYL receptors and type 2 C protein phosphatases were also used to screen HPLC-fractionated plant extracts for the presence of endogenous compounds that activate PYL/PYL receptors PYR1, PYL2, PYL3, and/or PYL4. HPLC fractionation of extracts was used to identify compounds different from abscisic acid (the known agonist). […] Purification of the agonist was achieved via multiple rounds of chromatographic separation coupled to yeast two hybrid assays that informed the fractions to move forward at each step of the purification. The structure of the purified agonist was deduced by X-ray crystallography of crystalline purified agonist.

[5] = molecular target: T4, PYL2-HAB1 (Arabidopsis thaliana, UniProt O80992); experiment: Yeast two-hybrid BD-PYL2 / AD-HAB1 interaction, X-gal stain; format: cell-based; settings: 10 μM
T4 construct: BD-PYR/PYL fusion proteins were constructed in the same manner as for BD-PYR1 above; expressed in transfected cells; host or cells: yeast (Y190, as for BD-PYR1)
T4 sequence (O80992 1-190): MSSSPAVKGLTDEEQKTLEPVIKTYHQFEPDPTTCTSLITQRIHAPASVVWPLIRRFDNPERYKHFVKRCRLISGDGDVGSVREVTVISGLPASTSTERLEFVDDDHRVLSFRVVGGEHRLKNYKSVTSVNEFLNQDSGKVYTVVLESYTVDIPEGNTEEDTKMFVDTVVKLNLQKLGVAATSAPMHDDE
T4 sequence (Q9CAJ0 23-511 partner): T1 sequence (Q9CAJ0 23-511 partner)
Procedure: as §1, with “fashion. […]” for “fashion.”

[6] = plant extract screen and related commercial compounds

Row | Compound | PYR1-HAB1 interaction by X-gal stain [1] | other results
1 | O=C(O)COc1ccc(Cl)cc1Cl [2,4-D] | neither (−)-ABA, kinetin, 2,4-D, Gibberellic acid (GA), epi-brassinolide (BR), methyl jasmonate (meJA) or apyrabactin showed activity | 
2 | C=C1C[C@]23C[C@@]1(O)CC[C@H]2[C@@]12C=C[C@H](O)[C@@](C)(C(=O)O1)[C@H]2[C@@H]3C(=O)O [Gibberellic acid] | neither (−)-ABA, kinetin, 2,4-D, Gibberellic acid (GA), epi-brassinolide (BR), methyl jasmonate (meJA) or apyrabactin showed activity | 
3 | O=S(=O)(NCc1ccccc1)c1ccc(Br)c2ccccc12 [apyrabactin] | neither (−)-ABA, kinetin, 2,4-D, Gibberellic acid (GA), epi-brassinolide (BR), methyl jasmonate (meJA) or apyrabactin showed activity | effect on germination [2]: inactive analog
4 | C=C(C(=O)O)[C@@H]1CC[C@@H](C)[C@@H]2CCC(C)=C[C@@H]21 [artemisinic acid] |  | PYL4 agonist activity in yeast two hybrid assays [3, 6]: PYL3/PYL4 selective agonist; PYL3 agonist activity in yeast two hybrid assays [4, 6]: PYL3/PYL4 selective agonist
5 | CC(C)[C@@H](C)[C@@H](O)[C@H](O)[C@@H](C)[C@H]1CC[C@H]2[C@@H]3COC(=O)[C@H]4C[C@H](O)[C@H](O)C[C@]4(C)[C@H]3CC[C@]12C [epi-brassinolide] | neither (−)-ABA, kinetin, 2,4-D, Gibberellic acid (GA), epi-brassinolide (BR), methyl jasmonate (meJA) or apyrabactin showed activity | 
6 | c1coc(CNc2ncnc3[nH]cnc23)c1 [kinetin] | neither (−)-ABA, kinetin, 2,4-D, Gibberellic acid (GA), epi-brassinolide (BR), methyl jasmonate (meJA) or apyrabactin showed activity | 
7 | CC/C=C\CC1C(=O)CCC1CC(=O)OC (stereo not shown) [methyl jasmonate] | neither (−)-ABA, kinetin, 2,4-D, Gibberellic acid (GA), epi-brassinolide (BR), methyl jasmonate (meJA) or apyrabactin showed activity | 
8 | (−)-ABA | neither (−)-ABA, kinetin, 2,4-D, Gibberellic acid (GA), epi-brassinolide (BR), methyl jasmonate (meJA) or apyrabactin showed activity | PYL2-HAB1 interaction by X-gal stain [5]: respond; PYL4-HAB1 interaction by X-gal stain ([3]; 10 μM): respond; PYL3-HAB1 interaction by X-gal stain ([4]; 10 μM): respond
